Data from patent publication US5401760A, “Heterocyclic compounds” (Ono Pharmaceutical Co., Ltd., priority 1988, dated 1995).
Where a SMILES comes first, the peptide text is derived from it.

What was measured:
prolyl endopeptidase [1] = biological target: T1, prolyl endopeptidase (Bos taurus, UniProt Q9XTA2); assay: Prolyl endopeptidase inhibitory activity in vitro; format: biochemical; conditions: enzyme purified from bovine brain, pH 7.5, 37° C., substrate N-benzyloxycarbonyl-glycyl-prolyl-p-nitroanilide, read-out: Concentration for 50% inhibition IC50
T1 construct: prolyl endopeptidase which was purified from bovine brain; from tissue; host or cells: bovine brain (purified enzyme)
T1 sequence (Q9XTA2 whole entry): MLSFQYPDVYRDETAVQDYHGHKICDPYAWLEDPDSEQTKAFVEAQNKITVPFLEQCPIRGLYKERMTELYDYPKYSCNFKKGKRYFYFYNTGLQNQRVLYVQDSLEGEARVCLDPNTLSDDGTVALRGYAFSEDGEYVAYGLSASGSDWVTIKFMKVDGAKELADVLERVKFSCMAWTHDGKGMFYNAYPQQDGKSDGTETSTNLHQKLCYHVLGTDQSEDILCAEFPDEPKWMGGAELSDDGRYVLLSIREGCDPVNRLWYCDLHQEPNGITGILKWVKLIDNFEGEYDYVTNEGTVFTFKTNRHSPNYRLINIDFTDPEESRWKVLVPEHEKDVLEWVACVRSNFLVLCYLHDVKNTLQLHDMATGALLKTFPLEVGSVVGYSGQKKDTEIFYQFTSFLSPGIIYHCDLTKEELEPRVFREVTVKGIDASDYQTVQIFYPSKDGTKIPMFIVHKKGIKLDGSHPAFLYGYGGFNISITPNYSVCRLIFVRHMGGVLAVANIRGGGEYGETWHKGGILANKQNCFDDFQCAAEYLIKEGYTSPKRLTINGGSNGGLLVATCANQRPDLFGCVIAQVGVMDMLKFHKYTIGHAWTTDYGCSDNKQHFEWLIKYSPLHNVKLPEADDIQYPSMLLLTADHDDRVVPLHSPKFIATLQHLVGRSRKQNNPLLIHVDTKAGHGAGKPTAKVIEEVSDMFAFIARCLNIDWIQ
Description: For example, in a standard laboratory test, results in the following were given.
Prolyl endopeptidase inhibitory activity in vitro
Inhibitory activity of prolyl endopeptidase in vitro was measured by the following test system.
A mixed solution of 20 mM tris-HCl buffer (pH 7.5; 935 μl; containing 10 mM EDTA and 10 mM mercaptoethanol), a solution of a compound of the present invention in DMSO (10 μl) and a solution of prolyl endopeptidase which was purified from bovine brain (0.13 unit ml; prepared by the method described in J. Biochem., 94, 1179 (1983) ) in tris-HCl buffer (15 μl) was preincubated for 15 mins at 37° C.
To the solution, 5 mM of N-benzyloxycarbonyl-glycyl-prolyl-p-nitroanilide (40 μl) in a mixture of 40% dioxane-60% water was added. The solution was incubated for 1 min at the same temperature.
Optical absorption (a1) at 405 nm of the solution, and optical absorption (a2) at 405 nm of the solution after more 30 mins' incubation at 37° C. were measured.
Optical absorptions (b1 and b2) of the solutions using DMSO instead of the solution of the compound of the present invention were also measured.
Inhibitory ratio was calculated by the following expression and IC50 (required concentration for 50% inhibition) was obtained (See Protein, Nucleic acid and Enzyme 25(6), 513, 1980.). [formula] Toxicity

prolyl endopeptidase [2] = conditions: literature, J. Neurochem., 41, 69 (1983); cited from earlier work

SMILES: CCOC(=O)C(=O)[C@@H]1CCCN1C(=O)C(CCCCCc1ccccc1)C(C)C (mixture of isomers) [2 (h), 2-[(2S)-1-[(2RS)-2-isopropyl-7-phenylheptanoyl]pyrrolidin-2-yl]-2-oxoacetic acid ethyl ester]
- IC50 (prolyl endopeptidase [1]): 0.017 µM

SMILES: CCC(O)[C@@H]1CSCN1C(=O)C1CCCCN1C(=O)CCc1ccccc1 (mixture of isomers) [15 (a), (1RS)-1-[(4R)-3-[1-(3-phenylpropanoyl)piperidin-2-ylcarbonyl]thiazolidin-4-yl]propan-1-ol]
- IC50 (prolyl endopeptidase [1]): 0.12 µM

SMILES: CN(Cc1ccccc1)C(=O)CCC(=O)N1CCC[C@H]1C(O)C(=O)OCc1ccccc1 (mixture of isomers) [Example 6, (2RS)-2-[(2S)-1-[3-(N-benzyl-N-methylcarbamoyl)propanoyl]pyrrolidin-2-yl]-2-hydroxyacetic acid benzyl ester]
- IC50 (prolyl endopeptidase [1]): 3 µM

SMILES: CCOC(=O)C(F)(F)C(O)[C@@H]1CCCN1C(=O)CCC(=O)N(C)Cc1ccccc1 (mixture of isomers) [Example 12, (3RS)-3-[(2S)-1-[3-(N-benzyl-N-methylcarbamoyl)propanoyl]pyrrolidin-2-yl]-3-hydroxy-2,2-difluoropropionic acid ethyl ester]
- IC50 (prolyl endopeptidase [1]): 69 µM

SMILES: CCC(O)[C@@H]1CCCN1C(=O)CCC(=O)N(C)Cc1ccccc1 (mixture of isomers) [Example 15, (1RS)-1-[(2S)-1-[3-(N-benzyl-N-methylcarbamoyl)propanoyl]pyrrolidin-2-yl]-propan-1-ol]
- IC50 (prolyl endopeptidase [1]): 1.5 µM

SMILES: CCOC(=O)C(=O)[C@@H]1CCCN1C(=O)CCC(=O)NC1c2ccccc2-c2ccccc21 [2 (b), 2-[(2S)-1-[3-[N-(9-fluorenyl)carbamoyl]propanoyl]pyrrolidin-2-yl]-2-oxoacetic acid ethyl ester]
- IC50 (prolyl endopeptidase [1]): 0.0018 µM

SMILES: CCOC(=O)C(=O)[C@@H]1CCCN1C(=O)CCC(=O)N(Cc1ccc(C(F)(F)F)cc1)c1ccccc1 [2 (d), 2-[(2S)-1-[3-[N-(4-trifluoromethylphenylmethyl)-N-phenylcarbamoyl]propanoyl]pyrrolidin-2-yl]-2-oxoacetic acid ethyl]
- IC50 (prolyl endopeptidase [1]): 0.00085 µM

SMILES: CCOC(=O)C(=O)[C@@H]1CCCN1C(=O)CCC(=O)N(Cc1ccccc1)c1ccccc1 [2 (g), 2-[(2S)-1-[3-(N-benzyl-N-phenylcarbamoyl)propanoyl]pyrrolidin-2-yl]-2-oxoacetic acid ethyl ester]
- IC50 (prolyl endopeptidase [1]): 0.0017 µM

SMILES: CCOC(=O)C(=O)[C@@H]1CCCN1C(=O)CCC(=O)NCc1ccc(Cl)cc1Cl [2 (l), 2-[(2S)-1-[3-[N-(2,4-dichloro-phenylmethyl)carbamoyl]propanoyl]pyrrolidin-2-yl]-2-oxoacetic acid ethyl ester]
- IC50 (prolyl endopeptidase [1]): 0.0018 µM

SMILES: O=C(CCCc1ccccc1)N1CSC[C@H]1C(=O)N1CSC[C@H]1C(O)c1ccccc1 (stereo partly drawn) [17 (a), (1RS)-1-phenyl-1-[(4R)-3-[(4R)-3-(4-phenylbutanoly)thiazolidin-4-ylcarbonyl]thiazolidin-4-yl]methanol]
- IC50 (prolyl endopeptidase [1]): 0.18 µM

SMILES: CCOC(=O)C(=O)[C@@H]1CCCN1C(=O)CCC(=O)N(C)Cc1ccccc1 [Example 2, 2-[(2S)-1-[3-(N-benzyl-N-methylcarbamoyl)propanoyl]pyrrolidin-2-yl]-2-oxoacetic acid ethyl ester]
- IC50 (prolyl endopeptidase [1]): 0.003 µM

SMILES: CN(Cc1ccccc1)C(=O)CCC(=O)N1CCC[C@H]1C(=O)C(=O)OCc1ccccc1 [Example 7, 2-[(2S)-1-[3-(N-benzyl-N-methylcarbamoyl)propanoyl]pyrrolidin-2-yl]-2-oxoacetic acid benzyl ester]
- IC50 (prolyl endopeptidase [1]): 0.0012 µM

SMILES: CN(Cc1ccccc1)C(=O)CCC(=O)N1CCC[C@H]1C(=O)C(F)(F)F [Example 9, 1-[(2S)-1-[3-(N-benzyl-N-methylcarbamoyl)propanoyl]pyrrolidin-2-yl]-2,2,2-trifluoroethan-1-one]
- IC50 (prolyl endopeptidase [1]): 0.023 µM

SMILES: CCOC(=O)C(F)(F)C(=O)[C@@H]1CCCN1C(=O)CCC(=O)N(C)Cc1ccccc1 [Example 13, 3-[(2S)-1-[3-(N-benzyl-N-methylcarbamoyl)propanoyl]pyrrolidin-2-yl]-3-oxo-2,2-difluoropropionic acid ethyl ester]
- IC50 (prolyl endopeptidase [1]): 0.1 µM

SMILES: CN(Cc1ccccc1)C(=O)CCC(=O)N1CCC[C@H]1C1OCCO1 [Example 19, 2-[(2S)-1-[3-(N-benzyl-N-methylcarbamoyl)propanoyl]pyrrolidin-2-yl]-1,3-dioxolane]
- IC50 (prolyl endopeptidase [1]): 14 µM

SMILES: O=C(NCC(=O)N1CCC[C@H]1C(=O)CCl)OCc1ccccc1 [N-benzyloxycarbonyl-glycyl-L-prolyl-chloromethane] (HELM PEPTIDE1{[O=C(OCc1ccccc1)[*:2]].G.P.[ClC[*:1]]}$$$$V2.0)
- inhibit prolyl endopeptidase (prolyl endopeptidase [2]): strongly inhibit
